Reference: PubChem BioAssay AID1963852 (Molecular Pharmacology Branch, DTP, NCI, 2024)

Test system: 282377-053-R-J1-PDC complex spheroid viability
Assay: Anticancer human tumor 282377-053-R-J1-PDC patient-derived colon adenocarcinoma cell line growth inhibition [POLQ]
Conditions: for IC50: curve of first compound; for viability, T/C: stronger effect = lower value
Procedure, shortened: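 Patient-derived tumour cells were co-cultured with HUVEC and mesenchymal stem cells as multicellular spheroids at 37 °C. They were treated with POLQ inhibitors (novobiocin, ART-558, RP6685) alone or combined with other agents. Top concentrations were at or near clinical Cmax (otherwise 10 microM; SN-38 at 1 microM), decreasing in half-log steps.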

[1] = second compound 0.0316 µM, first compound 0.0316 µM
[2] = second compound 0.0316 µM, first compound 0.1 µM
[3] = second compound 0.0316 µM, first compound 0.316 µM
[4] = second compound 0.0316 µM, first compound 1 µM
[5] = second compound 0.0316 µM, first compound 3.16 µM
[6] = second compound 0.0316 µM, first compound 10 µM
[7] = second compound 0.1 µM, first compound 0.0316 µM
[8] = second compound 0.1 µM, first compound 0.1 µM
[9] = second compound 0.1 µM, first compound 0.316 µM
[10] = second compound 0.1 µM, first compound 1 µM
[11] = second compound 0.1 µM, first compound 3.16 µM
[12] = second compound 0.1 µM, first compound 10 µM
[13] = second compound 0.316 µM, first compound 0.0316 µM
[14] = second compound 0.316 µM, first compound 0.1 µM
[15] = second compound 0.316 µM, first compound 0.316 µM
[16] = second compound 0.316 µM, first compound 1 µM
[17] = second compound 0.316 µM, first compound 3.16 µM
[18] = second compound 0.316 µM, first compound 10 µM
[19] = second compound 1 µM, first compound 0.0316 µM
[20] = second compound 1 µM, first compound 0.1 µM
[21] = second compound 1 µM, first compound 0.316 µM
[22] = second compound 1 µM, first compound 1 µM
[23] = second compound 1 µM, first compound 3.16 µM
[24] = second compound 1 µM, first compound 10 µM
[25] = second compound 3.16 µM, first compound 0.0316 µM
[26] = second compound 3.16 µM, first compound 0.1 µM
[27] = second compound 3.16 µM, first compound 0.316 µM
[28] = second compound 3.16 µM, first compound 1 µM
[29] = second compound 3.16 µM, first compound 3.16 µM
[30] = second compound 3.16 µM, first compound 10 µM
[31] = second compound 10 µM, first compound 0.0316 µM
[32] = second compound 10 µM, first compound 0.1 µM
[33] = second compound 10 µM, first compound 0.316 µM
[34] = second compound 10 µM, first compound 1 µM
[35] = second compound 10 µM, first compound 3.16 µM
[36] = second compound 10 µM, first compound 10 µM
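Further: spheroids exposed to compounds for seven days.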
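Wherever viability, T/C is given: 100% = DMSO vehicle control viability.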

In the case of `O=c1[nH]cc(F)c(=O)[nH]1` + COC1C(OC(N)=O)C(O)C(Oc2ccc3c(O)c(NC(=O)c4ccc(O)c(CC=C(C)C)c4)c(=O)oc3c2C)OC1(C)C, the IC50 (second compound 0.0316 µM) is reported as greater than 10 µM, the IC50 (second compound 0.1 µM) is reported as greater than 10 µM and the IC50 (second compound 0.316 µM) is reported as greater than 10 µM. It also gave an IC50 (second compound 1 µM) greater than 10 µM, an IC50 (second compound 3.16 µM) greater than 10 µM and an IC50 (second compound 10 µM) greater than 10 µM. For the same molecule, the viability, T/C [1] was 112%, the viability, T/C [2] was 89% and the viability, T/C [3] was 104%. For the same molecule, the viability, T/C [4] was 92%, the viability, T/C [5] was 74.6% and the viability, T/C [6] was 66.9%. The viability, T/C [7] was 109%, the viability, T/C [8] was 107% and the viability, T/C [9] was 90.9%. It also gave a viability, T/C [10] of 89.7%, a viability, T/C [11] of 72.1% and a viability, T/C [12] of 71%. It also gave a viability, T/C [13] of 112%, a viability, T/C [14] of 125% and a viability, T/C [15] of 97.1%. It also gave a viability, T/C [16] of 81.5%, a viability, T/C [17] of 77.7% and a viability, T/C [18] of 71.1%. It also gave a viability, T/C [19] of 112%, a viability, T/C [20] of 97.9% and a viability, T/C [21] of 94.4%. The viability, T/C [22] was 86.4%, the viability, T/C [23] was 79.6% and the viability, T/C [24] was 71.2%. The viability, T/C [25] was 102%, the viability, T/C [26] was 101% and the viability, T/C [27] was 88.1%. The viability, T/C [28] was 100%, the viability, T/C [29] was 80.7% and the viability, T/C [30] was 66.8%. It also gave a viability, T/C [31] of 105%, a viability, T/C [32] of 103% and a viability, T/C [33] of 115%. It also gave a viability, T/C [34] of 98%, a viability, T/C [35] of 82.2% and a viability, T/C [36] of 63.5%.
Work on `O=c1[nH]cc(F)c(=O)[nH]1` + Cc1cccc(N(C)C(=O)C2C(O)CCN2c2nc(C)cc(C(F)(F)F)c2C#N)c1 yielded an IC50 (second compound 0.0316 µM) greater than 10 µM, an IC50 (second compound 0.1 µM) greater than 10 µM and an IC50 (second compound 0.316 µM) greater than 10 µM. The IC50 (second compound 1 µM) was greater than 10 µM, the IC50 (second compound 3.16 µM) was greater than 10 µM and the IC50 (second compound 10 µM) was greater than 10 µM. The viability, T/C [1] was 111%, the viability, T/C [2] was 104% and the viability, T/C [3] was 89.8%. For the same molecule, the viability, T/C [4] was 78.8%, the viability, T/C [5] was 70.3% and the viability, T/C [6] was 68.5%. The viability, T/C [7] was 102%, the viability, T/C [8] was 111% and the viability, T/C [9] was 128%. The viability, T/C [10] was 86%, the viability, T/C [11] was 76.7% and the viability, T/C [12] was 70.4%. For the same molecule, the viability, T/C [13] was 117%, the viability, T/C [14] was 88.7% and the viability, T/C [15] was 116%. For the same molecule, the viability, T/C [16] was 74.9%, the viability, T/C [17] was 80.3% and the viability, T/C [18] was 67.9%. For the same molecule, the viability, T/C [19] was 107%, the viability, T/C [20] was 85.5% and the viability, T/C [21] was 105%. The viability, T/C [22] was 104%, the viability, T/C [23] was 82.7% and the viability, T/C [24] was 63.1%. It also gave a viability, T/C [25] of 99.1%, a viability, T/C [26] of 104% and a viability, T/C [27] of 80.6%. The viability, T/C [28] was 88.6%, the viability, T/C [29] was 80.1% and the viability, T/C [30] was 68.7%. For the same molecule, the viability, T/C [31] was 113%, the viability, T/C [32] was 109% and the viability, T/C [33] was 107%. For the same molecule, the viability, T/C [34] was 76.4%, the viability, T/C [35] was 69.7% and the viability, T/C [36] was 63.8%.
Molecule `C=CC(=O)N1CCN(c2nc(=O)n(-c3c(C)ccnc3C(C)C)c3nc(-c4c(O)cccc4F)c(F)cc23)C(C)C1` (stereo not drawn) + Nc1ccc(C#CCN(C(=O)Cc2ncc(C(F)(F)F)cc2C(F)(F)F)c2ccc(F)cc2)nn1 has an IC50 (second compound 0.0316 µM) greater than 10 µM, an IC50 (second compound 0.1 µM) greater than 10 µM and an IC50 (second compound 0.316 µM) greater than 10 µM. The IC50 (second compound 1 µM) was greater than 10 µM, the IC50 (second compound 3.16 µM) was greater than 10 µM and the IC50 (second compound 10 µM) was greater than 10 µM. The viability, T/C [1] was 95%, the viability, T/C [2] was 107% and the viability, T/C [3] was 94%. The viability, T/C [4] was 90.8%, the viability, T/C [5] was 104% and the viability, T/C [6] was 97.5%. The viability, T/C [7] was 95.3%, the viability, T/C [8] was 107% and the viability, T/C [9] was 91%. For the same molecule, the viability, T/C [10] was 99.7%, the viability, T/C [11] was 113% and the viability, T/C [12] was 83.4%. It also gave a viability, T/C [13] of 90.4%, a viability, T/C [14] of 88.6% and a viability, T/C [15] of 100%. For the same molecule, the viability, T/C [16] was 98.7%, the viability, T/C [17] was 101% and the viability, T/C [18] was 94.9%. For the same molecule, the viability, T/C [19] was 108%, the viability, T/C [20] was 90.9% and the viability, T/C [21] was 111%. It also gave a viability, T/C [22] of 91.3%, a viability, T/C [23] of 97.7% and a viability, T/C [24] of 86.9%. The viability, T/C [25] was 106%, the viability, T/C [26] was 100% and the viability, T/C [27] was 92.8%. The viability, T/C [28] was 108%, the viability, T/C [29] was 91% and the viability, T/C [30] was 87.9%. The viability, T/C [31] was 112%, the viability, T/C [32] was 107% and the viability, T/C [33] was 114%. It also gave a viability, T/C [34] of 114%, a viability, T/C [35] of 98.7% and a viability, T/C [36] of 106%.
For `COc1ccc([C@@H](O)c2cc(-c3ncnc4cc(N5CCOCC5)ccc34)c(F)cc2Cl)nn1` + Nc1ccc(C#CCN(C(=O)Cc2ncc(C(F)(F)F)cc2C(F)(F)F)c2ccc(F)cc2)nn1, the IC50 (second compound 0.0316 µM) was greater than 10 µM, the IC50 (second compound 0.1 µM) was greater than 10 µM and the IC50 (second compound 0.316 µM) was greater than 10 µM. The IC50 (second compound 1 µM) was greater than 10 µM, the IC50 (second compound 3.16 µM) was greater than 10 µM and the IC50 (second compound 10 µM) was greater than 10 µM. It also gave a viability, T/C [1] of 101%, a viability, T/C [2] of 98.1% and a viability, T/C [3] of 102%. It also gave a viability, T/C [4] of 93.8%, a viability, T/C [5] of 88.3% and a viability, T/C [6] of 71.8%. It also gave a viability, T/C [7] of 94.4%, a viability, T/C [8] of 108% and a viability, T/C [9] of 97.3%. The viability, T/C [10] was 100%, the viability, T/C [11] was 85.5% and the viability, T/C [12] was 83.2%. The viability, T/C [13] was 102%, the viability, T/C [14] was 86.2% and the viability, T/C [15] was 111%. It also gave a viability, T/C [16] of 89%, a viability, T/C [17] of 106% and a viability, T/C [18] of 86.9%. For the same molecule, the viability, T/C [19] was 106%, the viability, T/C [20] was 88.5% and the viability, T/C [21] was 95.5%. For the same molecule, the viability, T/C [22] was 91.9%, the viability, T/C [23] was 88.6% and the viability, T/C [24] was 84.1%. It also gave a viability, T/C [25] of 109%, a viability, T/C [26] of 105% and a viability, T/C [27] of 92.5%. The viability, T/C [28] was 100%, the viability, T/C [29] was 91% and the viability, T/C [30] was 85.4%. The viability, T/C [31] was 122%, the viability, T/C [32] was 111% and the viability, T/C [33] was 98.7%. The viability, T/C [34] was 109%, the viability, T/C [35] was 100% and the viability, T/C [36] was 90.1%.
